Data published in patent US20130142739A1, “PROCESS FOR THE SYNTHESIS OF ISOTHIOCYANATES AND DERIVATIVES THEREOF AND USES OF SAME” (Auriga International, priority 2010, published 2013).
Like-named read-outs stand apart in the source and are kept apart here.

Test system: human melanocytes of the SKMel type
Test: Depigmentation: melanin production by melanocytes in culture, melanin content by spectrophotometry
Type: cell-based
Settings: for Eff./Ref. to 5 μM (relative activity with respect to kojic acid at the same concentration): kojic acid = 1; for activity at 5 µM: SK-MEL3, 72 h, read-out: Resid. Pig. (%) (percentage of residual pigmentation); for residual pigmentation percentage: 100 μM
Protocol: Various synthesized molecules were tested in order to determine their depigmenting power. The idea was to evaluate the effect of each of them on the production of melanin by melanocytes maintained in a culture medium.
For these tests, 2 lines of melanocytes were cultivated, human melanocytes of the SKMel type on the one hand and a murine line of the B16F10 type on the other hand. Here, we only show the results obtained on the human line.
The melanin content was determined by spectrophotometry, after 3 days of incubation in the presence of the molecule to be tested and cell lysis.
Kojic acid, a well-known depigmenting agent is used as a reference for making a hierarchy of the results.
For each measurement, the analyses were repeated. The indicated value corresponds to the calculated average. When the experiments are repeated, the average variation coefficient of the residual pigmentation percentage is of the order of 3% (comprised between 1.5% and 6% (for 3 tests).
This list is neither exhaustive nor limiting and the same type of results was obtained for the other molecules.

[1] = 5 μM, human line SKMel, 3 days of incubation, melanin vs control culture (cells alone)

| Structure (SMILES) | Eff./Ref. to 5 μM (relative activity with respect to kojic acid at the same concentration) (5 μM, human line SKMel) | activity at 5 µM [1] | residual pigmentation percentage (human line SKMel) | activity at 5 µM (Homo sapiens) |
| --- | --- | --- | --- | --- |
| CC(=O)CCCCN=C=S | 5 | 84% | – | – |
| C[S+]([O-])CCCCN (stereo not shown) [reference compound] | 11 | 67% | – | – |
| O=c1cc(CO)occ1O [kojic acid, Kojic acid, reference compound] | 1 | 97% | 73% | – |
| C[S+]([O-])CCCCN=C=S (stereo not shown) | 22 | 34% | – | – |
| CC[S+]([O-])CCCCN=C=S (stereo not shown) | 12 | – | – | 63% |
| C1COCCN1 [reference compound] | 5 | 86% | – | – |
| [O-][S+](CCCCN=C=S)c1ccccc1 (stereo not shown) | 10 | 71% | – | – |
| CS(=O)(=O)CCCCN=C=S | 15 | 54% | – | – |
| C[S+]([O-])CCCCNC(=S)NCCCC[S+](C)[O-] (stereo not shown) [Example 9, 1,3-bis-(4-(methylsulfinyl)butyl)-thiourea] | 27 | 20% | 14% | – |
| C1CCNCC1 [reference compound] | 17 | 50% | – | – |
